{"source": "patent US20050226821A1", "about": "“Cosmetic formulations containing l-arginine oligomers” (priority 2002, published 2005)", "key": {"[1]": {"system": "human subjects", "test": "Topical lip color and contour enhancement, image analysis of lip area after lip gloss application", "format": "in vivo", "details": "mean across 1, 5, 10, 15 and 30 minutes after application, Revlon Lip Gloss base", "procedure": "A preparation of (L-arg)-(L-arg)-(L-arg)-(L-arg)-(L-arg)-(L-arg)-(L-arg)-(L-arg)-(L-arg) or [LR9] was obtained from Sigma Genosys at >70% purity. […], a 1× stock of LR9 for lip enhancement was prepared as 35 mg in 50 μl pbs, which was added to 2.0 ml of Revlon Lip Gloss base for the following groups: • LR9 • Control (base only)\nAfter addition of LR9 to lip gloss base, samples were mixed to homogeneity and stored at room temperature overnight. After baseline image acquisition using a Minolta Dimage 7 digital camera set to 105 macro (1:1) with standard lighting and scaling conditions, human subjects underwent topical application of LR9 or control gloss. All participants were blinded with respect to treatment or control application. Additional digital micrographs were acquired at time 0, 1, 5, 10, 15, and 30 minutes after lip gloss application. The gloss was then removed and participants asked to record duration of any lip contour or color changes. Additionally, any complications (irritation, etc) were also tracked for each. Each subject was treated at different timepoints with both groups (treatment or control). Image analysis of total photographic area was performed for each group, with care taken to normalize each to scales included at the time of photograph acquisition. Baseline images (pre-application) were verified to have statistically similar values between pre-LR9 gloss and pre-base gloss applications for each participant. Mean and standard error across timepoints 1, 5, 10, 15, and 30 minutes were determined for each participant after LR9-gloss or base gloss application. Values for each as well as photos acquired at matching timepoints are presented by participant below for 3 participants. [drawing]"}, "[2]": {"system": "C57 black six mice", "test": "Topical enhancement of hair growth after depilation, daily application for 14 days", "format": "in vivo", "design": "key to Hair Shaft Length, Comparison anova (95) vs. control / Follicle Area, Comparison anova (95) vs. control / Number of follicles per cross-section, Comparison anova (95) vs. control: **: significant by fisher PLSD and Scheffe F-test (P = 0.0001)", "procedure": "A preparation of (L-arg)-(L-arg)-(L-arg)-(L-arg)-(L-arg)-(L-arg)-(L-arg)-(L-arg)-(L-arg) or [LR9] was obtained from Sigma Genosys at >70% purity. To achieve a therapeutic benefit on hair growth, a 10× stock of LR9 was prepared as 70 mg in 80 μl PBS. To 0.2 ml of Cetaphil moisturizer base was added the following: • LR9: 20 μl of 10× LR9 stock • Control: 20 μl PBS\nAfter addition of LR9/PBS to moisturizer base, samples were mixed to homogeneity and stored at 4C overnight. C57 black six mice at 8 weeks of age were anesthetized with 3% isoflurane by inhalation, were shaved, and underwent depilation at mid-scapular dorsal region of 2 cm×2 cm with a rosin mixture (Surgiwax, Ardell, Commerce, Calif.) to induce the synchronized adolescent first hair cycle. Moisturizer was applied daily at 0.2 cc per day for either LR9 treatment or control for a fourteen day period at n=4 per group. After 14 days application the treated skin segment was harvested en bloc and subdivided into three equal portions: a cranial portion, a left lateral portion and a right lateral portion. The cranial portion and the left lateral portion were fixed in 10% neutral buffered formalin for 12-16 hours, then rinsed in 70% ethanol and embedded in paraffin. The right lateral portion was snap frozen in OCT medium at the time of harvest and stored at −35C until use.\nParaffin-embedded specimens were sectioned at 4-6 microns, deparaffinized, and stained with a combination of Verhoeff elastica stain and the Masson trichrome stain for morphological assessment of follicle area and number. Frozen samples underwent random hair pulls to determine hair shaft length. All procedures and analyses were performed by blinded observers. […] Images were analyzed using Image Pro Plus software (Media Cybernetics, Silver Spring, Md.) to determine total cross-sectional follicle area, follicle number, or hair length. Mean and standard error were assessed using Statview (Abacus Concepts, Berkeley, Calif.), with comparisons made using ANOVA repeated measures and significance determined at 95% with post-hoc testing using Fisher PLSD or Scheffe F-test."}}, "data": [{"substance": "(L-arg)-(L-arg)-(L-arg)-(L-arg)-(L-arg)-(L-arg)-(L-arg)-(L-arg)-(L-arg) [LR9]", "values": [{"measurement": "Mean Area", "setting": "[1]; first of 3 participants", "result": 7.745, "unit": "sq. in."}, {"measurement": "Mean Area", "setting": "[1]; second of 3 participants", "result": 7.411, "unit": "sq. in."}, {"measurement": "Mean Area", "setting": "[1]; third of 3 participants", "result": 7.911, "unit": "sq. in."}, {"measurement": "Number of follicles per cross-section, Mean", "setting": "[2]; 14 days topical", "result": 406.417}, {"measurement": "Hair Shaft Length, Mean", "setting": "[2]; 14 days topical, 0.2 cc per day in Cetaphil moisturizer base, n=4, 1 pixel = 2.774 microns", "result": 1612.424, "unit": "pixels"}, {"measurement": "Follicle Area (by total x-sectional area), Mean", "setting": "[2]; 14 days topical, 1 square pixel = 7.69 square microns", "result": 53546.00, "unit": "square pixels"}, {"measurement": "Follicle Area, Comparison anova (95) vs. control", "setting": "[2]; 14 days, LR9 vs. control", "result": "**"}, {"measurement": "Hair Shaft Length, Comparison anova (95) vs. control", "setting": "[2]; 14 days, LR9 vs. control", "result": "**"}, {"measurement": "Number of follicles per cross-section, Comparison anova (95) vs. control", "setting": "[2]; 14 days, LR9 vs. control", "result": "**"}, {"measurement": "Hair growth as measured by hair shaft length, total follicle area, and number of hair follicles", "setting": "[2]; without any additional transdermal delivery platform", "result": "statistically significantly enhance hair growth"}]}]}
